We go through one compound from publication PMC8345109, “Optimization of New Catalytic Topoisomerase II Inhibitors as an Anti-Cancer Therapy” (Cancers, 2021).

Values after ≈ are worked out from the molar mass of the structure shown. Like-named read-outs stand apart in the source and are kept apart here. Bounds are passed on as bounds.

One data set is described as follows: Solubility by LC/MS/MS. To be noted: kinetic from dmso stock. Type of data set: physicochemical. How it is done: Stock solutions of the tested compounds at 50 mM in dimethyl sulfoxide (DMSO) were diluted 50-fold in methanol (MeOH), Roswell Park Memorial Institute-1640 (RPMI1640), plus 5% charcoal-stripped serum (CSS) from Sigma-Aldrich (media) and phosphate-buffered saline (PBS), and vortexed at room temperature for 1 h at 800 rpm. The resulting solutions were centrifuged at 20,000× g for 5 min, and the saturated supernatants were diluted 40-fold in acetonitrile. The resultant solutions were subjected to LC/MS/MS to determine the solubility.

Data set [1] has as its target T1, TOP2A (Homo sapiens, UniProt P11388). Kind of data set: K-DNA decatenation assay, TOP2A. To be noted: 0.01-200 uM, three biological repeats. Type of data set: biochemical. Here is the method: (§1) Figure 2 T637 and T638 are TOP2A inhibitors. (A) K-DNA decatenation assays and (B) supercoiled plasmid DNA relaxation assays are used to measure TOP2A enzyme activity in the presence of 0.01–200 uM T637 or T638. Three biological repeats were performed with each concentration of the compounds, and the densitometry of the D-DNA bands from (A) and the SC bands from (B) was used to establish an inhibition curve for IC50 calculation.

Data set [2] has as its target T1, TOP2A. Kind of data set: Supercoiled plasmid DNA relaxation assay, TOP2A. Type of data set: biochemical. To be noted: 0.01-200 uM, three biological repeats. How it is done:
as §1

The target of data set [3] is T2, TOP2B (Homo sapiens, UniProt Q02880). Briefly: K-DNA decatenation assay, TOP2B. In kind it is biochemical. To be noted: 0.01-200 uM, three biological repeats. How it is done: (§2) Figure 3 T637 and T638 are TOP2B inhibitors. (A) K-DNA decatenation assays and (B) supercoiled plasmid DNA relaxation assays are used to measure TOP2B activity in the presence of 0.01–200 uM T637 or T638. Three biological repeats were performed with each concentration of the compounds, and the densitometry of the D-DNA bands from (A) and the SC bands from (B) was used to establish an inhibition curve for IC50 calculation.

The target in data set [4] is T2, TOP2B. Kind of data set: Supercoiled plasmid DNA relaxation assay, TOP2B. The conditions noted are these: 0.01-200 uM, three biological repeats. In kind it is biochemical. Here is the method:
as §2

A further data set relates to salmon sperm DNA. Briefly: Ethidium bromide displacement assay. In kind it is binding. To be noted: 100 µg/mL salmon sperm DNA, 2 µg/mL ethidium bromide. Here is the method:
(A) Ethidium bromide displacement assays were performed by mixing 100 µg/mL salmon sperm DNA with −/+2 µg/mL ethidium bromide and the indicated compounds. Reactions were subjected to fluorescence emission of 590 nm and excitation of 535 nm. Obtained signals were detected by using the Multimode Microplate Reader (Infinite F500). […] Reactions were subjected to 5–20% LED/excitation power and medium MST power using premium capillaries. Obtained signals were detected by using the Monolith NT.115 system. The change in thermophoresis is expressed as the change in the normalized fluorescence (ΔFnorm). MST assays were repeated with two control compounds, enzalutamide (Enza) and merbarone.

Data set [5] has as its target T3, human TOP2A(431-1193) (Homo sapiens, UniProt P11388).
T3 construct: 6xHis (N); made in house; host or cells: E. coli BL21 (DE3)
Briefly: EMSA, TOP2A(431-1193) with 5ZRF DNA oligo. In kind it is binding. The conditions noted are these: 2 uM protein, 300 nM oligo. A general note: In EMSA bound probe runs differently from free probe, usually more slowly.

Data set [6] concerns the target T3, human TOP2A(431-1193). Kind of data set: Fluorescence polarization (FP) assay of TOP2A-DNA interaction. In kind it is binding. The conditions noted are these: 500 nM protein, 0.01-200 µM compound. How it is done:
Fluorescent polarization assay was performed in Corning® Low Volume 384-well Black Flat Bottom microplate. […] Triplicate reactions were transferred onto the microplate and incubated at room temperature for 20 min. Fluorescence polarization (FP) measurements were taken by Tecan Infinite F500 with the excitation wavelength of 485 nm and emission wavelength of 535 nm.
(§3) (A) EMSA was performed by purified full-length TOP2A or TOP2B proteins at a contraction of 300 nM with IRDay700 labeled 5ZRF DNA oligo at a concentration of 100 nM in the presence of −/+200 µM of ICRF193, T60, T637, and T638. […] Reactions were subjected to fluorescence […], which were detected by using the Multimode Microplate Reader (Infinite F500). (D) DNA cleavage assays were performed using full-length human TOP2A and TOP2B incubated with the supercoiled pHOT plasmid in the presence of 200 µM of etoposide plus 1, 100, or 200 µM of ICRF193, T60, T637, and T638. Reactions were separated on a DNA gel with ethidium bromide. All experiments were repeated three times, and one representative image was shown. Note: N, nicked DNA; L, linear DNA; and SC, supercoiled DNA.
On the technique in general: Fluorescence polarisation rises when a labelled molecule tumbles more slowly, as on binding a larger partner.

A short description of the next data set: in vitro. The conditions noted are these: mouse, liver microsomes, pH 7.4. A general note: Liver microsomes are vesicles of endoplasmic reticulum, rich in cytochrome P450 enzymes.
In data set [7] the test system is cervical cancer line Hela. Kind of data set: Hela cell growth (Incucyte). To be noted: Homo sapiens, 120 h, read-out: Cell growth inhibition.
Procedure: (§4) (A) K562 cells were treated with 0, 0.5, 1, 5, 10, 15, and 20 uM of T60 or 0, 0.5, 1, 5, 10, 15, 20, 50, and 100 uM of T637 and T638 for 24, 48, or 72 h. […] (B) NCI-H446 small cell lung cancer line and Hela cervical cancer line were treated with 0, 0.5, 1, 5, 10, 15, and 20 uM of T60 or 0, 0.5, 1, 5, 10, 15, 20, 50, and 100 uM of T637 and T638 for five days. Cell growth rates were measured by using Incucyte^TM. (C) K562 cells were treated with 0, 5, 10, 15, and 20 uM of T60, T637, or T638 for 48 h. Cytotoxicity was evaluated by measuring the LDH levels from the culture media. (D) K562 cells were treated with the vehicle or 10–20 µM of etoposide, T60, T637, or T638 for 4 h. Immunoblotting measured p-H2AXγ levels in cells with vinculin as a loading control.
A further data set relates to K562 leukemia cells. Briefly: K562 cell proliferation (MTS assay). To be noted: K562, up to 100 uM.
Data set [8] concerns the target T4, full-length TOP2A (Homo sapiens, UniProt P11388). Briefly: EMSA, full-length TOP2A with 5ZRF DNA oligo. The conditions noted are these: 200 µM compound, 300 nM protein, 100 nM oligo. On the set-up: EMSA was performed by purified full-length TOP2A or TOP2B proteins. Type of data set: binding. Here is the method:
as §3

The target in the next data set is full-length TOP2B (Homo sapiens, UniProt Q02880). Briefly: EMSA, full-length TOP2B with 5ZRF DNA oligo. In kind it is binding. Set-up: EMSA was performed by purified full-length TOP2A or TOP2B proteins. To be noted: 200 µM compound, 300 nM protein, 100 nM oligo. How it is done: as §3
Data set [9] has as its target T4, full-length TOP2A. Kind of data set: DNA cleavage assay, TOP2A. Type of data set: biochemical. Set-up: DNA cleavage assays were performed using full-length human TOP2A and TOP2B. To be noted: 200 µM etoposide plus 1, 100 or 200 µM compound, pHOT plasmid. How it is done: as §3

T4 sequence (P11388 whole entry): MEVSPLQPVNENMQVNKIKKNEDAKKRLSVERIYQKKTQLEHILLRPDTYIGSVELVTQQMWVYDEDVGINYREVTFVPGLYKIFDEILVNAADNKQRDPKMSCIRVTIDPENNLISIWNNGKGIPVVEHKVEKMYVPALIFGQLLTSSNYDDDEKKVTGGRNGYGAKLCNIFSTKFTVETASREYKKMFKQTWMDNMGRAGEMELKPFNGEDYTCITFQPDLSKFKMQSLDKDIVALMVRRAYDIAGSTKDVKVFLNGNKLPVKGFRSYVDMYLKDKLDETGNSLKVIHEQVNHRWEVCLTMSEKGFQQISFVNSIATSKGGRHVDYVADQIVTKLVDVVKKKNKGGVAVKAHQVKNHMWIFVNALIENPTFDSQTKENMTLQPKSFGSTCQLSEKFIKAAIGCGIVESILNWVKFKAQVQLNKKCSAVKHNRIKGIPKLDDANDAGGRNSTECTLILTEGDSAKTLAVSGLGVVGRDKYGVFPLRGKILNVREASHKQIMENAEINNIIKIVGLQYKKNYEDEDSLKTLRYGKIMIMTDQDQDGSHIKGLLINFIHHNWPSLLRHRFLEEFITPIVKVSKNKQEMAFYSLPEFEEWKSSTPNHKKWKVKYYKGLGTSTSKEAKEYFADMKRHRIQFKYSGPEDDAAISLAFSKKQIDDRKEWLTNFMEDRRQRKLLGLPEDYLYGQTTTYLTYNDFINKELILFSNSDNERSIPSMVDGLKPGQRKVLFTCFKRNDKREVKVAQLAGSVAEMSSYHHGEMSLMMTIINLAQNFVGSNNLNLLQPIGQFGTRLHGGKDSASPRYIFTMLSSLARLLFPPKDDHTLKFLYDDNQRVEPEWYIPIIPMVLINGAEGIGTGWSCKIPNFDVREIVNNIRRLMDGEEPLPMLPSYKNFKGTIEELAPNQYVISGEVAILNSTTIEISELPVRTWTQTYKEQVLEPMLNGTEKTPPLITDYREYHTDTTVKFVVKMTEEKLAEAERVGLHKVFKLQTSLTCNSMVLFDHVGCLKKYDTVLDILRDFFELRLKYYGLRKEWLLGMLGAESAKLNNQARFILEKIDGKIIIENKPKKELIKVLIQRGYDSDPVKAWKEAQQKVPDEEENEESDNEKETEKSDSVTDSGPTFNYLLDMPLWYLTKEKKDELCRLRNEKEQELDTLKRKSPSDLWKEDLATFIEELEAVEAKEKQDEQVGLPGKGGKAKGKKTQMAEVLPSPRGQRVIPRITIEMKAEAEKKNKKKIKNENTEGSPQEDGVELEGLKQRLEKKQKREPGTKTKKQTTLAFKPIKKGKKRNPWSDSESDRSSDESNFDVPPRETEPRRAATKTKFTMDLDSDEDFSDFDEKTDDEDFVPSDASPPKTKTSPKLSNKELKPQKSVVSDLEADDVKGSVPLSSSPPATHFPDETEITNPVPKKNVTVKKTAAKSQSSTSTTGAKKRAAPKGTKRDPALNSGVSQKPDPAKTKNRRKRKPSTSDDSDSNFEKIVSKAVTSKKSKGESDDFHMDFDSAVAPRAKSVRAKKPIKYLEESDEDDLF
T1 sequence (P11388 whole entry): as above
T2 sequence (Q02880 whole entry): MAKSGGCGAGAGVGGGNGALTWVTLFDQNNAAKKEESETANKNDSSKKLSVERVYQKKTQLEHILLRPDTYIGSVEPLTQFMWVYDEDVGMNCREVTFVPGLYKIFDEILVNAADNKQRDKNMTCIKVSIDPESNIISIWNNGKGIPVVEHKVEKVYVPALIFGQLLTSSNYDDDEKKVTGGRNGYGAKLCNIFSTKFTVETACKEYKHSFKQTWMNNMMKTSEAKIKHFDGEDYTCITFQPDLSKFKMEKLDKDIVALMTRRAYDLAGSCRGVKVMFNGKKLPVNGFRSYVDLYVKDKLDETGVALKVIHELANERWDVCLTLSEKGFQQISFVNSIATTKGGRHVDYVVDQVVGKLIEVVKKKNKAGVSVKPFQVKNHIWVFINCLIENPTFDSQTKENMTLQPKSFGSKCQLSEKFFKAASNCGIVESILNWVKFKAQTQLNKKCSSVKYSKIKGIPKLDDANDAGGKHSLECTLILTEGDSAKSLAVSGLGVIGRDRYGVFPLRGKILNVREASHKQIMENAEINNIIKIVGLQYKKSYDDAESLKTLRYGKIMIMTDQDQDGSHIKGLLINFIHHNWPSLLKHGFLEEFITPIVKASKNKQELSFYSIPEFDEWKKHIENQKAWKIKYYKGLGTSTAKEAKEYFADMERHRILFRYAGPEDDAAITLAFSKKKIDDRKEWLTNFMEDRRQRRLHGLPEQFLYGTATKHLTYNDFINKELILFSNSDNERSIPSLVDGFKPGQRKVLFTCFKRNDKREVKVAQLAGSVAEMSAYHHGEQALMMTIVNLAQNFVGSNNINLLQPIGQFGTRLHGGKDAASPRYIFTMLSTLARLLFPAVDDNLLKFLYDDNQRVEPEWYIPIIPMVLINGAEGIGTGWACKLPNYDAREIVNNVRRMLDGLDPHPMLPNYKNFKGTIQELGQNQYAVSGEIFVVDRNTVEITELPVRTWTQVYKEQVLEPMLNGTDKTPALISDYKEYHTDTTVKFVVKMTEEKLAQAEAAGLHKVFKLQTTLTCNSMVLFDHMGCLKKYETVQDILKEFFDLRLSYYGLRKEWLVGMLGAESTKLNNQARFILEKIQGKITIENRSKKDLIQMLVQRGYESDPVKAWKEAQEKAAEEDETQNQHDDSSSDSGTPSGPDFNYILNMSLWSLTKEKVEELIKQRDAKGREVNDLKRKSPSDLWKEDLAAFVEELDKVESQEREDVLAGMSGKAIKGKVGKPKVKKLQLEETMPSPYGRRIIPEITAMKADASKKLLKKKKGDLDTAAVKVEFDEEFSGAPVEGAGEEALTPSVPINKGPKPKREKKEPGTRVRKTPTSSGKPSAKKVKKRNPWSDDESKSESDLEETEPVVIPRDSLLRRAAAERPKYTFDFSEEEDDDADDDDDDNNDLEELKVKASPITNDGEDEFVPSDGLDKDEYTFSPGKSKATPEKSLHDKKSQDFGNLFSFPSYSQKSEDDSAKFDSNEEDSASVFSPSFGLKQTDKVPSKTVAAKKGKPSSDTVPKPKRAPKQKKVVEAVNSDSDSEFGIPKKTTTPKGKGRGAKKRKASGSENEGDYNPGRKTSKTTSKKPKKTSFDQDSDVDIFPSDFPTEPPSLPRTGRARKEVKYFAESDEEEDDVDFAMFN
T3 sequence (P11388 431-1193): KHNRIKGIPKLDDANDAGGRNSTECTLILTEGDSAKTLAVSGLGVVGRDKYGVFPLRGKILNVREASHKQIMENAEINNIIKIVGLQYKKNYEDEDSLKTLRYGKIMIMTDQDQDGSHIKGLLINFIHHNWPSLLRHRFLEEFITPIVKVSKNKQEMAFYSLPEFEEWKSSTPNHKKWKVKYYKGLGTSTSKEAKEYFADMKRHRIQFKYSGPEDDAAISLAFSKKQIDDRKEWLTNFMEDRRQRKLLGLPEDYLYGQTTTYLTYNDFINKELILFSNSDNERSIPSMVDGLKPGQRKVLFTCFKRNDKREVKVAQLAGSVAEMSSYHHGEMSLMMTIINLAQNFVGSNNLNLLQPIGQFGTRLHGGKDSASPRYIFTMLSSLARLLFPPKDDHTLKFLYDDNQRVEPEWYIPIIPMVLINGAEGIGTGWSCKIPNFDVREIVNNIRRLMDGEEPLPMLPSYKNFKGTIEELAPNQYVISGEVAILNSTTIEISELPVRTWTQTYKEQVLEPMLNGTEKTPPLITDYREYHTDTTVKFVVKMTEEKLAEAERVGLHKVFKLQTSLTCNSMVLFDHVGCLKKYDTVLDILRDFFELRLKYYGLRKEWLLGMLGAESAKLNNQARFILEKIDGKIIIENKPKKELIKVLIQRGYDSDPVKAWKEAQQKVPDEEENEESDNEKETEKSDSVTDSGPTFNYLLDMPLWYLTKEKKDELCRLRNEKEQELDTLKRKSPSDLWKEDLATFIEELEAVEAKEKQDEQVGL
Sequence of full-length TOP2B (Q02880 whole entry): as the sequence (Q02880 whole entry) above
Procedure for K562 leukemia cells: as §4
Procedure for in vitro: The reaction was initiated by adding NADPH, followed by incubation at 37 °C. […] The samples were then vortexed and centrifuged at 16,000 rpm for 10 min at 4 °C. The supernatants were collected and analyzed by LC/MS/MS to determine the remaining percentage and the half-life (t1/2) by integrating compound peaks and fitting the resulting AUC values and time points to a one-phase decay equation.

For `Nc1cc(Nc2ccccc2)ccc1NC(=O)c1ccc[nH]c1=S` [T638], the solubility at 1 h in “Solubility by LC/MS/MS” (RPMI1640 plus 5% charcoal-stripped serum, plasma or biological fluid, cell culture media with serum, read-out: Solubility Media/FBS) is 485 µM; in “Solubility by LC/MS/MS” (methanol, organic solvent or mixture, methanol, read-out: Solubility Methanol) it was greater than 1000 µM; in the data set “Solubility by LC/MS/MS” (phosphate-buffered saline, aqueous buffer, PBS, read-out: Solubility PBS) it was 142 µM (≈ 47.8 µg/mL). Besides, the IC50 against TOP2A [1] is roughly 700 nM; at TOP2A [2] it was 2100 nM; at TOP2B [3], roughly 3800 nM; on TOP2B [4], 7500 nM. In addition, in the data set on salmon sperm DNA, the “Fluorescence induced by the ethidium bromide/DNA complex reduced by increasing doses (DNA intercalation)” value is “not”. The “Inhibition of TOP2A(431-1193)-DNA interaction (EMSA)” value on human TOP2A(431-1193) [5] is “inhibited TOP2A–DNA interaction dose-dependently”. For the same compound, the “Effect on TOP2A-DNA interaction (FP)” value on human TOP2A(431-1193) [6] was “reduced the TOP2A–DNA interaction in a dose-dependent manner”. Moreover, the half-life at 1 uM in “in vitro” is greater than 16.7 h. The microsomal CLint at 1 uM in the data set “in vitro” stood at 2 µL/min/mg. Further, the inhibition at 100 µM in [7] worked out at 100%. In addition, the “Maximum cell proliferation inhibition” value in the data set with K562 leukemia cells (48 h) and in the data set on K562 leukemia cells (72 h) was 100% each time. Also, the “Block of TOP2A-DNA oligo complex formation (EMSA)” value at full-length TOP2A [8] is on record as “block”. Further, the “Block of TOP2B-DNA oligo complex formation (EMSA)” value on full-length TOP2B is reported as “block”. For the same compound, on full-length TOP2A [9], the “Prevention of etoposide-induced DNA cleavage, TOP2A” value was “did prevent etoposide-induced DNA cleavage”.

By IC50 is commonly meant the concentration that gives 50% inhibition. The term half-life denotes the time in which the quantity being followed falls by half. The microsomal CLint is the rate of metabolic loss divided by the concentration. Read a low microsomal CLint as greater metabolic stability. For orientation: inhibition means the drop in the measured response relative to a control, in per cent.
